Laboratory results taken from patent US20240316047A1, “INHIBITORS OF RNA HELICASE DHX9 AND USES THEREOF” (ACCENT THERAPEUTICS, INC., priority 2022, published 2024).

Target: Human recombinant DHX9 protein (Homo sapiens (Human), UniProt Q08211)
Assay: DHX9 ATPase assay (ADP-Glo)
Format: biochemical
Settings: for IC50: read-out: DHX9 Biochemical Inflection Point

Human recombinant DHX9 protein, sequence (Q08211 whole entry): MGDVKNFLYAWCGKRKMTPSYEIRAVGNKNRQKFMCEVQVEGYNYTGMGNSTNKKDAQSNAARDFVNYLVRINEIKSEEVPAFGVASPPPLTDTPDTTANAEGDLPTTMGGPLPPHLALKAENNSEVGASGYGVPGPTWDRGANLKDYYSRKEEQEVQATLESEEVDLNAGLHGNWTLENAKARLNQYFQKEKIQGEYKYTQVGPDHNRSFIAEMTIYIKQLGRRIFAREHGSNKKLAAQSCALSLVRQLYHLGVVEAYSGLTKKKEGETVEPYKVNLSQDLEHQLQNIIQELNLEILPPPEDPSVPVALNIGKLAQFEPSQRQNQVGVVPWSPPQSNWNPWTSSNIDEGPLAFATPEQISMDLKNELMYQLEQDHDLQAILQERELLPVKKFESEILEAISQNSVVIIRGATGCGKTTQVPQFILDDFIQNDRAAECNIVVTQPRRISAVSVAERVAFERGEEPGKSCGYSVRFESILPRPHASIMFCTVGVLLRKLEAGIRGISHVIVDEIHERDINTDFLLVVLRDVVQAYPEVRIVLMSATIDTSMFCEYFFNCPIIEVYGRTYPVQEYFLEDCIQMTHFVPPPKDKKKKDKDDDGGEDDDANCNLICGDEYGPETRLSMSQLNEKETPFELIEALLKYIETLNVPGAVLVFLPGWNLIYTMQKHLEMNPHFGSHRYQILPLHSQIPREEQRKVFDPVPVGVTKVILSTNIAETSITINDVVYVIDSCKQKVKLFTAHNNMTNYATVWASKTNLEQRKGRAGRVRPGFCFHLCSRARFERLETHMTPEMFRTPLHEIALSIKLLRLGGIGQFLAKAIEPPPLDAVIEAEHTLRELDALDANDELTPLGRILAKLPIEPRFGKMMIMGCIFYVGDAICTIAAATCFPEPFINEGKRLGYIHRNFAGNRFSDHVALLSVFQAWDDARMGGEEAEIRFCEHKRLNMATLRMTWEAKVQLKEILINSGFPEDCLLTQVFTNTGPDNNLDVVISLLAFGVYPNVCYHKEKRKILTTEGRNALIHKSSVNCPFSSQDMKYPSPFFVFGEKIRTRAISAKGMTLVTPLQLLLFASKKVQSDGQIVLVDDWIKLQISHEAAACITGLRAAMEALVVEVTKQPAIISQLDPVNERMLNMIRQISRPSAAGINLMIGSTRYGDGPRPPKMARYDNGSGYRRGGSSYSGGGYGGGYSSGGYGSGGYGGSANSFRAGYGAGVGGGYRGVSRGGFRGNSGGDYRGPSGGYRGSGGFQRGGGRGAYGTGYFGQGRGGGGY

| DHX9 Biochemical Max Inhibition | IC50 [nM] | SMILES |
| --- | --- | --- |
| 85.4 | 83.5 | COCc1cc(C(=O)Nc2cc(Cl)cc(NS(C)(=O)=O)c2)cn1-c1ncccc1F [Example 682] |
| 80.8 | 1.9 | Cc1cc(C(=O)Nc2cc(Cl)cc(NS(C)(=O)=O)c2)cn1-c1ncc(OC2COC2)cn1 [Example 669] |
| 72.7 | 21.6 | CS(=O)(=O)Nc1cc(Cl)cc(NC(=O)c2cc(C(=O)N3CCN(c4ccccc4)CC3)n(-c3ccccn3)c2)c1 [Example 654] |
| 67.1 | 96.5 | CS(=O)(=O)Nc1cc(Cl)cc(NC(=O)c2cc(-c3ncc(N4CC(C(F)(F)F)C4)cn3)n(CC(F)F)c2)c1 [Example 508] |
| 73.4% | 181 | CS(=O)(=O)Nc1cc(Cl)cc(NC(=O)c2cnn(C3CCOC3)c2)c1 (centres unmarked) [Example 182] |
| 57.7% | 255 | CCS(=O)(=O)Nc1cc(F)cc(NC(=O)c2cc(-c3ccccc3)cs2)c1 [Example 74] |
| 79.2% | 13.5 | COc1cccc2sc(C(=O)Nc3cc(Cl)cc(NS(C)(=O)=O)c3)cc12 [Example 321] |
| 67.3 | 19.8 | CN1CC[C@H](Oc2cnc(-c3cc(C(=O)Nc4cc(Cl)cc(NS(C)(=O)=O)c4)cn3CC(F)(F)F)nc2)C1 [Example 642] |
| 51.8% | 8050 | CS(=O)(=O)Nc1cc(Cl)cc(NC(=O)c2cnn(-c3ccccc3Oc3cccc(F)c3)c2)c1 [Example 265] |
| 65.9 | 18.3 | Cn1cc(C(=O)Nc2cc(Cl)cc(NS(C)(=O)=O)c2)cc1-c1ccc(N2CCN(C(=O)C(C)(C)C)CC2)cn1 [Example 591] |
| 52.5% | 91.7 | CS(=O)(=O)Nc1cc(Cl)cc(NC(=O)c2c[nH]c(-c3ccccc3)n2)c1 [Example 6] |
| 41.8% | 13600 | CCc1nc2ccc(C(=O)Nc3cc(Cl)cc(NS(C)(=O)=O)c3)cn2c1N(C)C [Example 133] |
| 64.7% | 269 | CS(=O)(=O)Nc1cc(Cl)cc(NC(=O)c2cnn(-c3ncccc3C(F)(F)F)c2)c1 [Example 47] |
| 82.3 | 7.3 | Cc1cc(C(=O)Nc2cc(Cl)cc(NS(C)(=O)=O)c2)cn1-c1ccc(OC2COC2)cn1 [Example 668] |
| 92 | 84.5 | COC1CN(c2cnc(-n3cc(C(=O)Nc4cc(Cl)cc(NS(C)(=O)=O)c4)cc3C)nc2)C1 [Example 404] |
| 70.3 | 54.9 | Cc1sc(C(=O)Nc2cc(Cl)cc(NS(C)(=O)=O)c2)cc1-c1c(F)cc(F)c[n+]1[O-] [Example 736] |
| 73.2% | 4 | Cn1cc(C(=O)Nc2cc(Cl)cc(NS(C)(=O)=O)c2)cc1-c1ncccc1OCc1nccs1 [Example 279] |
| 78.7% | 20.5 | CCOc1cnc(-c2cc(C(=O)Nc3cc(Cl)cc(NS(=O)(=O)CC)c3)sc2C)nc1 [Example 365] |
| 59.6 | 70.6 | CS(=O)(=O)Nc1cc(Cl)cc(NC(=O)c2cc(-c3ncc(OC4CN(S(C)(=O)=O)C4)cn3)n(CC(F)(F)F)c2)c1 [Example 651] |
| 70.2 | 104 | Cc1cc(C(=O)Nc2cc(Cl)cc(NS(C)(=O)=O)c2)cn1-c1ncc(N2CC(F)(F)C2)cc1OC1CCC1 [Example 673] |
| 48.7% | 18.7 | Cc1ccc(-n2cc(C(=O)Nc3cc(Br)cc(NS(C)(=O)=O)c3)cn2)nc1 [Example 42] |

| SMILES | DHX9 Biochemical Max Inhibition | IC50 [nM] |
| --- | --- | --- |
| Cc1cccnc1-c1cc(C(=O)Nc2cc(Br)cc(NS(C)(=O)=O)c2)cn1C [Example 84, N-(3-bromo-5-(methylsulfonamido)phenyl)-1-methyl-5-(3-methylpyridin-2-yl)-1H-pyrrole-3-carboxamide] | 66.7% | 10.1 |
